# Earlier results as cited in patent US20210393628A1, “COMPOSITIONS AND METHODS FOR MODULATING T CELL EXHAUSTION” (The Board of Trustees of the Leland Stanford Junior …, priority 2018, published 2021).
# System: tonically signaling CAR T cells
# Conditions: expanded in the presence of dasatinib
smiles,measurement,value
Cc1nc(Nc2ncc(C(=O)Nc3c(C)cccc3Cl)s2)cc(N2CCN(CCO)CC2)n1 [dasatinib],cytotoxicity,augmented
